Test results: PMC4664966, “Discovery and characterization of novel inhibitors of the sodium-coupled citrate transporter (NaCT or SLC13A5)” (Scientific Reports, 2015)
“Also recorded” adds a separate entry of the source.

How the values were obtained:
[1] = molecular target: Muscarinic acetylcholine receptor 3 (M3) (Homo sapiens, UniProt P20309); assay: Selectivity data (Table S1); assay type: binding
[2] = molecular target: Muscarinic acetylcholine receptor 2 (M2) (Homo sapiens, UniProt P08172); assay: Selectivity data (Table S1); assay type: binding
[3] = Steady state intravenous infusion in rat, tissue distribution
[4] = molecular target: Arginine vasopressin receptor 1A (AVPR1A) (Homo sapiens, UniProt P37288); assay: Selectivity data (Table S1); assay type: binding
[5] = molecular target: Monoamine oxidase A (MAOA) (Homo sapiens, UniProt P21397); assay: Selectivity data (Table S1); assay type: biochemical
CYP2C9 = CYP2C9 (Homo sapiens, UniProt P11712); assay: Selectivity data (Table S1); assay type: in vitro ADME; details: 3 µM
[6] = molecular target: Cytochrome P450 2C9 (CYP2C9) (Homo sapiens, UniProt P11712); assay: Selectivity data (Table S1); assay type: in vitro ADME
[7] = molecular target: Serotonin receptor 4e (5-HT4e) (Homo sapiens, UniProt Q13639); assay: Selectivity data (Table S1); assay type: binding
[8] = molecular target: Vascular endothelial growth factor receptor 2 (VEGFR-2) (Homo sapiens, UniProt P35968); assay: Selectivity data (Table S1); assay type: binding
[9] = molecular target: Lymphocyte-specific protein tyrosine kinase (LCK) (Homo sapiens, UniProt P06239); assay: Selectivity data (Table S1); assay type: biochemical
[10] = molecular target: Human ether-a-go-go (hERG) (Homo sapiens, UniProt Q12809); assay: Selectivity data (Table S1)
[11] = molecular target: Gamma-aminobutyric acid receptor A, alpha 1 (GABRA1) (Homo sapiens, UniProt P14867+P47870); assay: Selectivity data (Table S1); assay type: binding
[12] = Intra-/extracellular unbound concentration ratio (Kpuu) in human hepatocytes; assay type: in vitro ADME; details: cryopreserved hepatocytes, ratio of free intracellular and media concentration after 1 h incubation at 1 μM, geometric mean of 3 replicates ± SD
Method: (§1) kpuu values were determined by measuring total cell and media concentrations corrected for their respective fraction unbound. Detailed methods to determine intra- and extracellular concentrations of compound in the HEKNaCT cells and human hepatocytes will be the subject of a separate manuscript that is under preparation. […]
(§2) Intra- and extracellular concentrations of compound in cellular assays. kpuu values were determined by measuring total cell and media concentrations corrected for their respective […]
(§3) fraction unbound. […]
(§4) The solution was heated to reflux until the total volume was reduced to ~25 mL.
(§5) Hexane (25 mL) was added and the mixture was brought back to reflux than allowed to slowly cool to room temperature. After standing at room temperature for 16 h, the resulting suspension was filtered and dried under high vacuum to yield (S)-2-(4-(tert-butyl)phenethyl)-2-hydroxysuccinic acid (3) as a white solid. The filtrate was allowed to stand at room temperature for 4 days. The solvent evaporated to ~15 mL and large, colorless crystals formed.
(§6) X-ray analysis. Data collection was performed on a Bruker APEX diffractometer at room temperature. Data collection consisted of 3 omega scans and low angle and three at high angle; each with 0.5 step. In addition, 2 phi scans were collected to improve the quality of the […]

[13] = molecular target: Noradrenaline transporter, sodium-dependent (NAT) (Homo sapiens, UniProt P23975); assay: Selectivity data (Table S1)
[14] = molecular target: Proto-oncogene tyrosine-protein kinase (SRC) (Homo sapiens, UniProt P12931); assay: Selectivity data (Table S1); assay type: biochemical
HepG2 cells = assay: Cellular toxicity in HepG2 cells; assay type: cell-based; details: concentrations up to 300 μM and 72 hours incubation
[15] = Passive permeability, MDCK-LE cell monolayer; assay type: in vitro ADME; details: dog; MDCK-LE cell monolayer; read-out: Papp (apparent passive permeability)
Method: Passive permeability was assessed using MDCK-LE cell monolayer as described previously in Di et al., (2011)[44].

[16] = molecular target: Phosphodiesterase 5A1 (PDE5A1) (Homo sapiens, UniProt O76074); assay: Selectivity data (Table S1); assay type: biochemical
Endothelin (ETA) = Endothelin (ETA) (Homo sapiens, UniProt P25101); assay: Selectivity data (Table S1); assay type: binding
[17] = molecular target: Serotonin receptor 2A (5-HT2A) (Homo sapiens, UniProt P28223); assay: Selectivity data (Table S1); assay type: binding
[18] = molecular target: Cytochrome P450 2D6 (CYP2D6) (Homo sapiens, UniProt P10635); assay: Selectivity data (Table S1); assay type: in vitro ADME
CYP2D6 = CYP2D6 (Homo sapiens, UniProt P10635); assay: Selectivity data (Table S1); assay type: in vitro ADME; details: 3 µM
[19] = molecular target: Dopamine transporter, sodium-dependent (DAT) (Homo sapiens, UniProt Q01959); assay: Selectivity data (Table S1)
[20] = molecular target: Abelson murine leukemia viral oncogene homolog 1 (ABL1) (Homo sapiens, UniProt P00519); assay: Selectivity data (Table S1); assay type: biochemical
[21] = molecular target: Cytochrome P450 2C8 (CYP2C8) (Homo sapiens, UniProt P10632); assay: Selectivity data (Table S1); assay type: in vitro ADME
CYP2C8 = CYP2C8 (Homo sapiens, UniProt P10632); assay: Selectivity data (Table S1); assay type: in vitro ADME; details: 3 µM
[22] = Intra-/extracellular unbound concentration ratio (Kpuu) in HEKNaCT cells; assay type: in vitro ADME; details: human, ratio of free intracellular and media concentration after 1 h incubation at 1 μM, geometric mean of 3 replicates ± SD
Method: as §1, §2, §3, §4, §5, §6

[23] = molecular target: Phosphodiesterase 3A1 (PDE3A1) (Homo sapiens, UniProt Q14432); assay: Selectivity data (Table S1); assay type: biochemical
[24] = molecular target: Serotonin receptor 1B (5-HT1B) (Homo sapiens, UniProt P28222); assay: Selectivity data (Table S1); assay type: binding
[25] = molecular target: Cannabinoid receptor 1 (CB1) (Homo sapiens, UniProt P21554); assay: Selectivity data (Table S1); assay type: binding
[26] = molecular target: Opioid receptor, kappa 1 (OPRK1) (Homo sapiens, UniProt P41145); assay: Selectivity data (Table S1); assay type: binding
[27] = molecular target: Histamine receptor 1 (H1) (Homo sapiens, UniProt P35367); assay: Selectivity data (Table S1); assay type: binding

Chain of Human ether-a-go-go (hERG) (Q12809 whole entry): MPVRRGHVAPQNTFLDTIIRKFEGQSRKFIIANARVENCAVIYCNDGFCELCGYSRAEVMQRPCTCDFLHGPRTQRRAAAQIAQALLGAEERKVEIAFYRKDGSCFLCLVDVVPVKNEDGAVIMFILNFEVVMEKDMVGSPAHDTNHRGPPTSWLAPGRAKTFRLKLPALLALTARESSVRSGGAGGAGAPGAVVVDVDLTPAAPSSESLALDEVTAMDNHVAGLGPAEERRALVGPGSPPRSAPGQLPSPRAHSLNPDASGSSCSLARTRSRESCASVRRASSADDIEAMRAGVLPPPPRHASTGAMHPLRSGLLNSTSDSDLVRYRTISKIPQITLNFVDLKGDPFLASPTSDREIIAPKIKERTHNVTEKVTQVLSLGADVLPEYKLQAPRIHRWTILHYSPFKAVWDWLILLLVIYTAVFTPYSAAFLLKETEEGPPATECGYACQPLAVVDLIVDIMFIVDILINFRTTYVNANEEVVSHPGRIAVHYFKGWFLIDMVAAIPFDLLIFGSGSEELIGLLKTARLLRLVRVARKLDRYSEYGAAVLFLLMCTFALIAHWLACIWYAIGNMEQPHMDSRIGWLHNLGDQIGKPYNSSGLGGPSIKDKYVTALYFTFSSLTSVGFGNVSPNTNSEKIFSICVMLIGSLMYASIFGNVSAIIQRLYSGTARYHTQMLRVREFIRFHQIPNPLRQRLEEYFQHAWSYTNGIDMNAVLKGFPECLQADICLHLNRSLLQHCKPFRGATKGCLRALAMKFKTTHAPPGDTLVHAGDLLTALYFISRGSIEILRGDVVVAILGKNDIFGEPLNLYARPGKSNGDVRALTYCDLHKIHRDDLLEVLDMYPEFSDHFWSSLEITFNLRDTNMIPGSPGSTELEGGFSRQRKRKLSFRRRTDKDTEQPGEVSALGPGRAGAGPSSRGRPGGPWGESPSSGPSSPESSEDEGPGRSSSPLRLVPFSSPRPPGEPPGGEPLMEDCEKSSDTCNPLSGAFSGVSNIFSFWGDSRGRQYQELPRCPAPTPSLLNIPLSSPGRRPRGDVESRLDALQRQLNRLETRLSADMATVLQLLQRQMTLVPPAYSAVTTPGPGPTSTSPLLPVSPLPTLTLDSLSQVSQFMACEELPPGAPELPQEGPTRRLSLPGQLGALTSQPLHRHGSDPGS
Chain of Monoamine oxidase A (MAOA) (P21397 whole entry): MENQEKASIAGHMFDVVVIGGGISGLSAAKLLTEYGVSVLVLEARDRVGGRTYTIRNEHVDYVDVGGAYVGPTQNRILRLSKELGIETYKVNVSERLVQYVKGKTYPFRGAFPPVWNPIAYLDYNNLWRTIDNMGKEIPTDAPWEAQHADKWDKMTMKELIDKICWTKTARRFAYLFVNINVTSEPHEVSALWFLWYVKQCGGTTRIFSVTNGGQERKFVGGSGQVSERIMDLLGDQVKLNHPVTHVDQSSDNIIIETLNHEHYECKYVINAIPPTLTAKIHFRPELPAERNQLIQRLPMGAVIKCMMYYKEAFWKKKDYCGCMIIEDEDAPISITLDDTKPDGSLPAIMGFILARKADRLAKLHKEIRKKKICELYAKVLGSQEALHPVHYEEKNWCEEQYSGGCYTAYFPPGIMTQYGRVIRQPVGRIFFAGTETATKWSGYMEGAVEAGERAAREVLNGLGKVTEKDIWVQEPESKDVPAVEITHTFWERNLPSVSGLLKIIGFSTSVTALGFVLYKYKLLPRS
Chain of Muscarinic acetylcholine receptor 3 (M3) (P20309 whole entry): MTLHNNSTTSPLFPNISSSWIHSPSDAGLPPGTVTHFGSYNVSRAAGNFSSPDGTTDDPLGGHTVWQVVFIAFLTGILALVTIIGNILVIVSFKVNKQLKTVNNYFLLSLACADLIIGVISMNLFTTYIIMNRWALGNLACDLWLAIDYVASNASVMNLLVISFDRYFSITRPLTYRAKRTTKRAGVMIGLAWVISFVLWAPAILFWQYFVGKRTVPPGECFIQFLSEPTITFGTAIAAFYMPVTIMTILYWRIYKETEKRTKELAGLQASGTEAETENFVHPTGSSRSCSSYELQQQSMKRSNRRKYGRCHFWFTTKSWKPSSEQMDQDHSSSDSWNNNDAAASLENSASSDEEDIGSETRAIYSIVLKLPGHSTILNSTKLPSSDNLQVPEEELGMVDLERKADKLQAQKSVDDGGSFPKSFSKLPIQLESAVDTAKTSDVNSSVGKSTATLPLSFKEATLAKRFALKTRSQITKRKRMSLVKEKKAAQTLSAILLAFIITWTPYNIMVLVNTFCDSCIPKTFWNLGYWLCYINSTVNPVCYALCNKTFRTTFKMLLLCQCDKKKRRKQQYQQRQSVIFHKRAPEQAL
Chain of Serotonin receptor 2A (5-HT2A) (P28223 whole entry): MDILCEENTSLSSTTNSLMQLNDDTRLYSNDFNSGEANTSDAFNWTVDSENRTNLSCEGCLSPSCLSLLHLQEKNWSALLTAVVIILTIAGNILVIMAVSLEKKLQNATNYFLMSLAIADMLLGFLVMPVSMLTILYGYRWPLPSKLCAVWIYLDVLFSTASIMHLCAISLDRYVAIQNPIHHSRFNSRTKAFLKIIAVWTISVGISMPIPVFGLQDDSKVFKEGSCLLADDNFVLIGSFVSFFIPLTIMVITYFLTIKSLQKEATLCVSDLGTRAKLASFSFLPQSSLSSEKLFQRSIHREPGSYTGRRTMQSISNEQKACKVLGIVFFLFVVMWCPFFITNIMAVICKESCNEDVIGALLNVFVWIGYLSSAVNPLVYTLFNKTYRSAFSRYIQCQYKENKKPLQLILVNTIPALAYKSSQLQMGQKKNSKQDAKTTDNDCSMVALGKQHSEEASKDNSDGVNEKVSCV
Chain of Cytochrome P450 2C9 (CYP2C9) (P11712 whole entry): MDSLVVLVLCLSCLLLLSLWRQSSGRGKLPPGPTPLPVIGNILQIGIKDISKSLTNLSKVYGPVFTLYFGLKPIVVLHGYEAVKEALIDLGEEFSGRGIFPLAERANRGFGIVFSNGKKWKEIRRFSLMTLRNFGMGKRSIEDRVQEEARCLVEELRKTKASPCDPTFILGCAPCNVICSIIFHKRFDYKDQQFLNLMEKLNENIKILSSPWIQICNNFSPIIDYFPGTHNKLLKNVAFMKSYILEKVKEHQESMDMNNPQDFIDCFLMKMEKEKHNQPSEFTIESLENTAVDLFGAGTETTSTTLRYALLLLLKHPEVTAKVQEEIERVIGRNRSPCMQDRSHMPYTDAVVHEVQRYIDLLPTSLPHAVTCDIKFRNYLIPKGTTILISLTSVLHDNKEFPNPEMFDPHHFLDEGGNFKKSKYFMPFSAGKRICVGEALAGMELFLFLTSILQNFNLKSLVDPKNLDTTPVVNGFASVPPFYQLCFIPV
Chain of CYP2C9 (P11712 whole entry): as above
Chain of Opioid receptor, kappa 1 (OPRK1) (P41145 whole entry): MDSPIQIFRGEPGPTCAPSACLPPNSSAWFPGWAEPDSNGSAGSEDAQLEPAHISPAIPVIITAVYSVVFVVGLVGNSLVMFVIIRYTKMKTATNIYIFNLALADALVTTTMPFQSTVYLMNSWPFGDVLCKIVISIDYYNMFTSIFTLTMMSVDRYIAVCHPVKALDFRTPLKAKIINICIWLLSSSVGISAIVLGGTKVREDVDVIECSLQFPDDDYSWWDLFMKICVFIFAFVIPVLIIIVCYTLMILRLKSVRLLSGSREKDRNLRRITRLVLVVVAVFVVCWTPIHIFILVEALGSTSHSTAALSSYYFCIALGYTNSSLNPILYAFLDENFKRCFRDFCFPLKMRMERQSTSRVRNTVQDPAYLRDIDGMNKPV
Chain of Serotonin receptor 1B (5-HT1B) (P28222 whole entry): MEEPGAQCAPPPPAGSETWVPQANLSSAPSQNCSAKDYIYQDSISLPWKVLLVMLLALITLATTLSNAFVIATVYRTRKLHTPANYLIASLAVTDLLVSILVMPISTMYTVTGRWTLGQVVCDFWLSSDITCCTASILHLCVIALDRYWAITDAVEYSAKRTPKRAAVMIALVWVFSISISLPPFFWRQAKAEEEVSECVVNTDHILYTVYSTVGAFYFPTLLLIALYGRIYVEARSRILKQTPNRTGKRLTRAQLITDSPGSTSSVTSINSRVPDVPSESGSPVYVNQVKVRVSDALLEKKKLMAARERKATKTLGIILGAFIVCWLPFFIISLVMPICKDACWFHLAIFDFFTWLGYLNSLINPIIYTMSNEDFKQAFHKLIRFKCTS
Chain of Arginine vasopressin receptor 1A (AVPR1A) (P37288 whole entry): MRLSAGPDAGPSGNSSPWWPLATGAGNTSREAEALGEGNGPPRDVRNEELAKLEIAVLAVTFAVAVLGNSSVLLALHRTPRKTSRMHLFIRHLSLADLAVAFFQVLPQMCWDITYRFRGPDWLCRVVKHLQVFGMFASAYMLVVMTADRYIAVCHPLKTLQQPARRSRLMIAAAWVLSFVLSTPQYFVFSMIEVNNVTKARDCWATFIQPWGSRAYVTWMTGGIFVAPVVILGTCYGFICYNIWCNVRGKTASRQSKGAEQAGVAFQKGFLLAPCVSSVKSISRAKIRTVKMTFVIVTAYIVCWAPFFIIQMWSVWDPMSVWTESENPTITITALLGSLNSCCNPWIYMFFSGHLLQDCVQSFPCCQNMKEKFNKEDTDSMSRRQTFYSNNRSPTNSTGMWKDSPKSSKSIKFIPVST

In the case of `CC(C)(C)c1ccc(CC[C@@](O)(CC(=O)O)C(=O)O)cc1` [Compound 2], the inhibition at 100 µM [1] is reported as < 10%, the inhibition at 100 µM [2] is reported as < 10% and the brain penetration ([3]; steady state intravenous infusion) is reported as “minimal brain penetration; also recorded: restricted in the brain”. For the same molecule, the “uptake in liver and kidney compared to plasma” value ([3]; steady state intravenous infusion 0.27mg/kg/hour) was “significant uptake of the compound in the liver and kidney”, the inhibition at 100 µM [4] was < 10% and the inhibition at 100 µM [5] was < 10%. For the same molecule, the inhibition at 3 µM (CYP2C9) was < 10%, the “interaction/inhibition of CYP2C9” value [6] was “no significant interaction/inhibition” and the inhibition at 100 µM [7] was < 10%. For the same molecule, the inhibition at 100 µM [8] was < 10%, the inhibition at 100 µM [9] was < 10% and the IC50 [10] was > 100 µM. For the same molecule, the “interaction/inhibition of the hERG channel” value [10] was “no significant interaction/inhibition”, the inhibition at 100 µM [11] was < 10% and the Kp uu at 1 h, 1 µM [12] was 4.8 ± 0.5. The inhibition at 100 µM [13] was < 10%, the inhibition at 100 µM [14] was < 10% and the cellular toxicity (HepG2 cells) was “no observable toxicity”. The Papp [15] was 1.4 ×10⁻⁶ cm/s, the IC50 [16] was > 30 µM and the inhibition at 100 µM (Endothelin (ETA)) was < 10%. The inhibition at 100 µM [17] was < 10%, the “interaction/inhibition of CYP2D6” value [18] was “no significant interaction/inhibition” and the inhibition at 3 µM (CYP2D6) was < 10%. The inhibition at 100 µM [19] was < 10%, the inhibition at 100 µM [20] was < 10% and the “interaction/inhibition of CYP2C8” value [21] was “no significant interaction/inhibition”. For the same molecule, the inhibition at 3 µM (CYP2C8) was < 10%, the Kp uu at 1 h, 1 µM [22] was 29 ± 5 and the IC50 [23] was > 30 µM. For the same molecule, the inhibition at 100 µM [24] was < 10%, the inhibition at 100 µM [25] was < 10% and the inhibition at 100 µM [26] was 13%. The inhibition at 100 µM [27] was < 10%.
